Results published in patent publication US20160303181A1, “SYNERGISTIC COMBINATION OF ALANINE-GLUTAMINE, HYALURONIC ACID AND OAT EXTRACT AND THE USE THEREOF IN A COMPOSITION INTENDED FOR HEALING WOUNDS AND REPAIRING SKIN LESIONS” (PIERRE FABRE DERMO-COSMETIQUE, priority 2013, published 2016).
Marks after values point to notes of the source that are not given here. Residues, ends and D or L forms follow the SMILES beside them.

test system: HaCaT human keratinocyte line; assay: Migration of keratinocytes, Oris Cell Migration Assay; assay type: cell-based; details: DMEM 0% FCS, 24 hours; oat seedling extract 10 or 30 μg/ml, hyaluronate 20 or 60 μg/ml, L-alanyl-L-glutamine 40 or 90 μg/ml, EGF 33 ng/ml
Description: The objective of this test was to evaluate the effect of hyaluronic acid, oat seedling extract, L-alanyl-L-glutamine and combinations thereof on the migration of keratinocytes using the Oris Cell Migration Assay kit (Platypus Technologies).
The spontaneously immortalised HaCaT human keratinocyte line, frequently cited as reference model in the literature was used.
The protocol used for the study of cell migration is based on the use of a 96 well kit, the Oris Cell Migration Assay (Platypus technologies—TEBU), enabling the miniaturisation and the quantification of this cellular process.
The principle of this test consists in studying cell migration towards the centre of the wells of the 96 well plate. It consists in placing a stopper in the wells, in order to create a 2 mm diameter detection zone. Then removing the stoppers once cells have properly adhered to the surface around them, and thus to enable cells to migrate towards the detection zone. The plates without stoppers and with the active ingredients are incubated at 37° C. for 24 hours in DMEM (Dulbecco's Modified Eagle Medium) 0% FCS (foetal calf serum). The quantity of cells situated in the zone where the stopper was is analysed in order to evaluate the migration of the cells. A mask makes it possible to visualise and to count uniquely the cells situated in this zone. For each condition, the average is determined on 6 to 8 wells.
The cells were incubated in FCS-free medium.
• EGF: 33 ng/ml, • oat seedling extract: 10 or 30 μg/ml,
Filtering. Concentration by drying until a dry extract is obtained. • sodium hyaluronate (molecular weight 250-450 kDa): 20 or 60 μg/ml, • L-alanyl-L-glutamine: 40 or 90 μg/ml.
The Results are Expressed: • In fluorescence intensity (FI), proportional to the quantity of cells having migrated. • In percentage activity compared to the control 0% FCS.
Statistical analyses by the Dunnett test were carried out on the crude migration values. This test then gives “p value” values characterising the significance of the results obtained for different conditions. The degree of significance was fixed at […]

Row | Molecule | effect on the migration of keratinocytes (in words)
1 | C[C@H](N)C(=O)N[C@@H](CCC(N)=O)C(=O)O [A-G, L-alanyl-L-glutamine] (H-Ala-Gln-OH) | induces the migration of keratinocytes in a concentration-dependent manner
2 | EGF: positive control of the migration experiments, 33 ng/ml | induces the migration of keratinocytes
3 | sodium hyaluronate [AH] | did not have any significant effect on the migration of keratinocytes

same assay, conditions: Table 1, lower concentrations: EGF 33 ng/ml, ES 10 μg/ml, AH 20 μg/ml, A-G 40 μg/ml; 24 hours, DMEM 0% FCS; control 1850

Row | Molecule | Average ± SD (fluorescence intensity, proportional to the quantity of cells having migrated)
4 | C[C@H](N)C(=O)N[C@@H](CCC(N)=O)C(=O)O [A-G, L-alanyl-L-glutamine] (H-Ala-Gln-OH) | 2471 ± 788
5 | EGF: positive control of the migration experiments, 33 ng/ml | 2569±
6 | sodium hyaluronate [AH] | 1939 ± 438

same assay, conditions: Table 1, lower concentrations: EGF 33 ng/ml, ES 10 μg/ml, AH 20 μg/ml, A-G 40 μg/ml; 24 hours, DMEM 0% FCS; control = 100

Row | Molecule | % Migration (percentage activity compared to the control 0% FCS)
7 | C[C@H](N)C(=O)N[C@@H](CCC(N)=O)C(=O)O [A-G, L-alanyl-L-glutamine] (H-Ala-Gln-OH) | 200%
8 | EGF: positive control of the migration experiments, 33 ng/ml | 216%
9 | sodium hyaluronate [AH] | 114%

same assay, conditions: Table 2, higher concentrations: EGF 33 ng/ml, ES 30 μg/ml, AH 60 μg/ml, A-G 90 μg/ml; 24 hours, DMEM 0% FCS; control 1729 ± 384

Row | Molecule | Average ± SD (fluorescence intensity, proportional to the quantity of cells having migrated)
10 | C[C@H](N)C(=O)N[C@@H](CCC(N)=O)C(=O)O [A-G, L-alanyl-L-glutamine] (H-Ala-Gln-OH) | 2586 ± 1092
11 | EGF: positive control of the migration experiments, 33 ng/ml | 3553 ± 1556
12 | sodium hyaluronate [AH] | 1735 ± 488

same assay, conditions: Table 2, higher concentrations: EGF 33 ng/ml, ES 30 μg/ml, AH 60 μg/ml, A-G 90 μg/ml; 24 hours, DMEM 0% FCS; control = 100

Row | Molecule | % Migration (percentage activity compared to the control 0% FCS)
13 | C[C@H](N)C(=O)N[C@@H](CCC(N)=O)C(=O)O [A-G, L-alanyl-L-glutamine] (H-Ala-Gln-OH) | 194%
14 | EGF: positive control of the migration experiments, 33 ng/ml | 301 * %
15 | sodium hyaluronate [AH] | 101%
